Assay results: PubChem BioAssay AID248 (DTP/NCI, 2004)
Several values for one entry are separate records, joined by “and”; a condition that tells them apart may be missing. Identical values can stand only once. Inconclusive results and toxic doses are left out. No stated cut-off is given here; in the data, active means T/C of 150% or more; inactive means T/C below 125%.

Test system: L1210 leukemia ip in BDF1 mice, survival T/C
Assay: NCI In Vivo Anticancer Drug Screen. Data for tumor model L1210 Leukemia (intraperitoneal) in B6D2F1 (BDF1) mice
Details: endpoint: mean survival time, higher = longer survival
Summary of the method: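 Mice bearing the transplanted tumor received compound or vehicle. Survival of the treated group was divided by that of the vehicle-treated control group to give the ratio.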

[1] = dose: 100.0 mg/kg/injection, schedule: Q01DX009 (ip), vehicle: Klucel (hydroxypropylcellulose) (HPC)
[2] = dose: 200.0 mg/kg/injection, schedule: Q01DX009 (ip), vehicle: Klucel (hydroxypropylcellulose) (HPC)
[3] = dose: 400.0 mg/kg/injection, schedule: Q01DX009 (ip), vehicle: Klucel (hydroxypropylcellulose) (HPC)
[4] = dose: 100.0 mg/kg/injection, schedule: Q01DX009 (ip), vehicle: saline with Tween-80
[5] = dose: 100.0 mg/kg/injection, schedule: Q04DX003 (ip), vehicle: saline with Tween-80
[6] = dose: 200.0 mg/kg/injection, schedule: Q01DX009 (ip), vehicle: saline with Tween-80
[7] = dose: 200.0 mg/kg/injection, schedule: Q04DX003 (ip), vehicle: saline with Tween-80
[8] = dose: 400.0 mg/kg/injection, schedule: Q01DX009 (ip), vehicle: saline with Tween-80
[9] = dose: 400.0 mg/kg/injection, schedule: Q04DX003 (ip), vehicle: saline with Tween-80
[10] = dose: 25.0 mg/kg/injection, schedule: Q01DX009 (ip), vehicle: saline with Tween-80
[11] = dose: 25.0 mg/kg/injection, schedule: Q04DX003 (ip), vehicle: saline with Tween-80
[12] = dose: 50.0 mg/kg/injection, schedule: Q01DX009 (ip), vehicle: saline with Tween-80
[13] = dose: 50.0 mg/kg/injection, schedule: Q04DX003 (ip), vehicle: saline with Tween-80
[14] = dose: 100.0 mg/kg/injection, schedule: Q04DX003 (ip), vehicle: Klucel (hydroxypropylcellulose) (HPC)
[15] = dose: 200.0 mg/kg/injection, schedule: Q04DX003 (ip), vehicle: Klucel (hydroxypropylcellulose) (HPC)
[16] = dose: 100.0 mg/kg/injection, schedule: Q01DX001 (ip), vehicle: saline
[17] = dose: 200.0 mg/kg/injection, schedule: Q01DX001 (ip), vehicle: saline
[18] = dose: 400.0 mg/kg/injection, schedule: Q04DX003 (ip), vehicle: Klucel (hydroxypropylcellulose) (HPC)
[19] = dose: 75.0 mg/kg/injection, schedule: Q01DX001 (ip), vehicle: other
[20] = dose: 150.0 mg/kg/injection, schedule: Q01DX001 (ip), vehicle: other
[21] = dose: 100.0 mg/kg/injection, schedule: Q01DX009 (ip), vehicle: saline
[22] = dose: 100.0 mg/kg/injection, schedule: Q04DX003 (ip), vehicle: saline
[23] = dose: 200.0 mg/kg/injection, schedule: Q01DX009 (ip), vehicle: saline
[24] = dose: 200.0 mg/kg/injection, schedule: Q04DX003 (ip), vehicle: saline
[25] = dose: 400.0 mg/kg/injection, schedule: Q04DX003 (ip), vehicle: saline
[26] = dose: 75.0 mg/kg/injection, schedule: Q01DX001 (ip), vehicle: saline
[27] = dose: 150.0 mg/kg/injection, schedule: Q01DX001 (ip), vehicle: saline
[28] = dose: 12.5 mg/kg/injection, schedule: Q04DX003 (ip), vehicle: saline with Tween-80
[29] = dose: 400.0 mg/kg/injection, schedule: Q01DX001 (ip), vehicle: saline

Measured: T/C

COc1cc(Cl)ccc1NC(=O)Oc1cccc2ccccc12
inactive: [1] 89 % of control | [2] 101 % of control | [3] 95 % of control

CCCC(CCC)(C(N)=O)c1ccc(OC)cc1
inactive: dose: 100.0 mg/kg/injection, schedule: Q01DX001 (ip), vehicle: carboxymethylcellulose (CMC) 87 % of control | dose: 200.0 mg/kg/injection, schedule: Q01DX001 (ip), vehicle: carboxymethylcellulose (CMC) 98 % of control | dose: 400.0 mg/kg/injection, schedule: Q01DX001 (ip), vehicle: carboxymethylcellulose (CMC) 93 % of control

CC1CCCC2C(=O)CCC(C(C)(C)O)C12C (stereo not given)
inactive: [4] 91 % of control | [5] 92 % of control | [6] 95 % of control | [7] 92 % of control | [8] 93 % of control | [9] 92 % of control

CN(CCS)Cc1ccccc1
inactive: [10] 97 % of control | [11] 95 % of control | [12] 99 % of control | [13] 106 % of control | [4] 103 % of control | [5] 97 % of control and 102 % of control

COc1ccccc1N1C(=O)C2C(C1=O)C1(Cl)C(Cl)=C(Cl)C2(Cl)C1(Cl)Cl (stereo not given)
inactive: dose: 50.0 mg/kg/injection, schedule: Q01DX009 (ip), vehicle: Klucel (hydroxypropylcellulose) (HPC) 101 % of control | [1] 95 % of control | [14] 103 % of control | [2] 101 % of control and 92 % of control | [15] 109 % of control

CCOC(=O)c1cnc(=O)n(Cc2ccccc2)c1N
inactive: dose: 100.0 mg/kg/injection, schedule: Q04DX002 (ip), vehicle: other 98 % of control | dose: 200.0 mg/kg/injection, schedule: Q04DX002 (ip), vehicle: other 95 % of control | dose: 400.0 mg/kg/injection, schedule: Q04DX002 (ip), vehicle: other 98 % of control

CCCCCCCC/C=C\CCCCCCCC(=O)O.[Cu+2]
inactive: [16] 105 % of control | [17] 96 % of control

CCOC(=O)C1CCN(S(=O)(=O)c2ccc(C)cc2)c2cc(Cl)ccc2C1=O (stereo not given)
inactive: [1] 93 % of control | [14] 96 % of control | [2] 93 % of control | [15] 93 % of control | [3] 101 % of control | [18] 94 % of control

CSc1nc(Cl)c2ccn(C)c2n1
inactive: [19] 100 % of control | [20] 96 % of control | dose: 300.0 mg/kg/injection, schedule: Q01DX001 (ip), vehicle: other 100 % of control

CN(C)CCNC(=O)N(C)C
inactive: [21] 95 % of control | [22] 92 % of control | [23] 98 % of control | [24] 100 % of control | dose: 400.0 mg/kg/injection, schedule: Q01DX009 (ip), vehicle: saline 102 % of control | [25] 97 % of control

Cc1cc(=O)n2c3c(c(N)ccc13)OC2
inactive: [1] 108 % of control | [14] 93 % of control | [2] 97 % of control | [15] 100 % of control | [3] 93 % of control | [18] 97 % of control

S=c1[nH]c2[nH]cnc(=S)c2[nH]1
inactive: [16] 97 % of control | [17] 97 % of control

COc1cc(OC)c(NC(=S)Nc2ccc([N+](=O)[O-])cc2)cc1Cl
inactive: [12] 92 % of control | [4] 88 % of control | [6] 90 % of control

COc1c(Cl)cc(Cl)cc1Cl
inactive: dose: 100.0 mg/kg/injection, schedule: Q01DX009 (ip), vehicle: saline sonified 96 % of control | [14] 101 % of control | dose: 200.0 mg/kg/injection, schedule: Q01DX009 (ip), vehicle: saline sonified 107 % of control | [15] 98 % of control | dose: 400.0 mg/kg/injection, schedule: Q01DX009 (ip), vehicle: saline sonified 97 % of control | [18] 104 % of control

Cc1c2ccccc2c(CSCCC(N)C(=O)O)c2ccccc12 (stereo not given)
inactive: [4] 89 % of control | [6] 91 % of control | [8] 110 % of control

COc1cc(C(=O)COC(C)=O)cc2c1OC(c1ccccc1)(c1ccccc1)O2
inactive: [17] 86 % of control

C[Si](C)(O[Si](C)(C)c1ccccc1)c1ccccc1
inactive: dose: 20.0 mg/kg/injection, schedule: Q01DX009 (ip), vehicle: saline 93 % of control | dose: 40.0 mg/kg/injection, schedule: Q01DX009 (ip), vehicle: saline 90 % of control | dose: 80.0 mg/kg/injection, schedule: Q01DX009 (ip), vehicle: saline 87 % of control | [21] 95 % of control | [22] 103 % of control | [23] 107 % of control | [24] 100 % of control | [25] 97 % of control

NNc1ncnc2nc[nH]c12
inactive: dose: 12.0 mg/kg/injection, schedule: Q01DX015 (ip), vehicle: saline 93 % of control | dose: 25.0 mg/kg/injection, schedule: Q01DX015 (ip), vehicle: saline 101 % of control | dose: 50.0 mg/kg/injection, schedule: Q01DX015 (ip), vehicle: saline 104 % of control | [26] 105 % of control | dose: 100.0 mg/kg/injection, schedule: Q01DX015 (ip), vehicle: saline 116 % of control | [27] 102 % of control | dose: 300.0 mg/kg/injection, schedule: Q01DX001 (ip), vehicle: saline 114 % of control

NC(CSC(c1ccccc1)(c1ccccc1)c1ccc(O)cc1)C(=O)O (stereo not given)
inactive: dose: 6.25 mg/kg/injection, schedule: Q01DX009 (ip), vehicle: saline 111 % of control | dose: 12.5 mg/kg/injection, schedule: Q01DX009 (ip), vehicle: saline 105 % of control | dose: 25.0 mg/kg/injection, schedule: Q01DX009 (ip), vehicle: saline 116 % of control | [19] 104 % of control | [20] 109 % of control

O=c1ccnc([Se])[nH]1
inactive: [28] 99 % of control | [11] 105 % of control | [13] 101 % of control | [5] 92 % of control | [7] 111 % of control | [9] 101 % of control

CC[C@@]1(O)C(=O)OCc2c1cc1n(c2=O)Cc2c-1nc1ccccc1c2Cl
inactive: [16] 117 % of control | [29] 88 % of control

O=C(O)/C=C/c1cnccn1
inactive: dose: 100.0 mg/kg/injection, schedule: Q04DX003 (ip), vehicle: carboxymethylcellulose (CMC) 103 % of control | dose: 200.0 mg/kg/injection, schedule: Q04DX003 (ip), vehicle: carboxymethylcellulose (CMC) 93 % of control | dose: 400.0 mg/kg/injection, schedule: Q04DX003 (ip), vehicle: carboxymethylcellulose (CMC) 97 % of control

CCn1c(C)nccc1=O
inactive: dose: 37.5 mg/kg/injection, schedule: Q01DX001 (ip), vehicle: saline 101 % of control | [26] 101 % of control | [27] 100 % of control

C[N+](C)(C)C1(Cc2ccc(F)cc2)c2ccccc2-c2ccccc21
inactive: dose: 6.25 mg/kg/injection, schedule: Q01DX009 (ip), vehicle: saline with Tween-80 88 % of control | dose: 6.25 mg/kg/injection, schedule: Q04DX002 (ip), vehicle: saline with Tween-80 98 % of control | dose: 6.25 mg/kg/injection, schedule: Q04DX003 (ip), vehicle: saline with Tween-80 90 % of control | dose: 12.5 mg/kg/injection, schedule: Q04DX002 (ip), vehicle: saline with Tween-80 115 % of control | [28] 90 % of control | [10] 88 % of control | dose: 25.0 mg/kg/injection, schedule: Q04DX002 (ip), vehicle: saline with Tween-80 98 % of control | [11] 90 % of control

CCSC1OC(C(COC(C)=O)OC(C)=O)C(OC(C)=O)C1NC(=O)OCc1ccccc1 (stereo not given)
inactive: dose: 50.0 mg/kg/injection, schedule: Q01DX001 (ip), vehicle: saline 100 % of control | [16] 97 % of control | [17] 97 % of control | [29] 91 % of control
